{
  "source": "patent US5952189A",
  "about": "(priority 1997, dated 1999)",
  "key": {"[1]": {"test_system": "SEB-induced hepatotoxicity", "type": "in vivo, mice", "details": "Gln + SEB + DK120 5 mg/kg"}, "3T3": {"test_system": "3T3", "assay": "Inhibition of UV-induced DNA fragmentation in 3T3 cells", "type": "cell-based, murine", "details": "UV 0.5 J/cm^2, 8 h, no inhibitor 38 ± 1.9", "protocol": "To determine if these findings were unique to U937 or if other cell lines also require protease activity to undergo apoptosis, the effects of several inhibitors on apoptosis induced by UV light in the human mammary carcinoma, BT-20, the murine fibroblast cell line, 3T3, and the human myeloid leukemia, HL-60 were tested. For the BT-20 and 3T3 cells, target cells were pretreated for one hour (with or without inhibitors as indicated in the table) and exposed to UV light at 0.5 J/cm^2 and then incubated for eight hours prior to assessing DNA fragmentation. HL-60 cells were pretreated for one hour (with or without inhibitors as indicated in the table) and exposed to UV at 0.2 J/cm^2 and then incubated for two hours prior to assessing DNA fragmentation.\nDNA fragmentation assays were carried out according to the protocol of Wright S. C., et al. (1,992) J. Cell. Biochem. 48, 344-355. Target cells were labeled with ^3 H-thymidine and plated in triplicate in flat bottom microtiter plates. Cells were incubated for the indicated length of time for each experiment in the presence of TNF or various inhibitors. In some experiments, cells were treated with UV light at 245 nm using a UV Crosslinker (Fisher Scientific). Assays were harvested and counted on a Packard matrix 96 beta counter. Percent DNA fragmentation was calculated as for the nuclear assay described in Example 3. In assays to test the effects of various inhibitors, the pH of extra wells containing assay buffer, target cells, and each inhibitor was always checked at the beginning and end of each assay to assure that the pH remained at 7.5."}, "isolated U937 nuclei": {"test_system": "isolated U937 nuclei", "assay": "DNA fragmentation assay using isolated U937 nuclei", "type": "cell-based, human", "details": "inhibitor 50 μM (FIG. 6B)", "protocol": "U937 cells were labeled with ^3 H-thymidine by culturing overnight with isotope at 0.5 μCi/ml. The cells were pelleted, washed once, and the cytoplasmic membrane lysed by resuspending the cells in assay buffer (50 mM Tris, 250 mM sucrose 10 mM MgSO4, pH 7.5) plus 0.02% NP-40. Nuclei were then pelleted and resuspended in assay buffer at 1×10^6 /ml. The assay was set up in triplicate in flat bottom microtiter plates under sterile conditions. Nuclei (0.05 ml) were mixed with 0.05 ml of sample diluted in 50 mM Tris pH 7.5 or buffer alone to determine total counts. Plates were incubated for 5 h at 37° C. and then harvested by the addition of 0.1 ml of harvesting buffer (10 mM Tris, 10 mM EDTA, 0.3% Triton X-100, pH 7.5). Plates were harvested by filtration onto glass fiber paper and counted on a Packard Matrix 96 beta counter. Percent DNA fragmentation was calculated as follows: […]"}, "[2]": {"test_system": "chymotrypsin-like enzymes", "details": "cited from earlier work"}, "[3]": {"test_system": "anti-Fas-induced hepatocyte apoptosis", "assay": "Anti-Fas induced hepatotoxicity in mice (serum transaminases)", "type": "in vivo", "protocol": "It has been previously shown that injection of mice with antibodies directed against the Fas antigen causes hepatocyte apoptosis and death due to liver failure (Ogasawara et al. (1993) Nature 364:806-809). Therefore, the effects of administration of DK120 to mice injected with antibodies directed against the murine Fas antigen were tested.\n^1 Mice (2 for each treatment) were injected ip +/- DK120 30 min prio\nto antiFas antibodies. Twelve h later serum transaminase levels were […]"}, "[4]": {"test_system": "LPS-induced hepatotoxicity"}, "BT-20": {"test_system": "BT-20", "type": "cell-based, human", "details": "for % DNA fragmentation: BT-20, UV 0.5 J/cm^2, 8 h, no inhibitor 44 ± 3.6"}, "mice": {"test_system": "mice", "assay": "Toxicity of DK120 in mice on daily injection", "type": "in vivo", "protocol": "In preliminary studies daily injection of mice with DK120 at 20 mg/kg was lethal. The reason for toxicity is not clear but may be related to the ability of DK120 to inhibit chymotrypsin-like enzymes that may be essential for the normal function of various tissues."}, "U937 cells": {"test_system": "U937 cells", "assay": "cells", "type": "cell-based, human"}},
  "note": "pIC50: −log10 of the molar value. Entries after “also recorded” stand apart in the source; their conditions may differ. Where two headings read alike, the source gives them in different places.",
  "data": [
    {"smiles": "C[C@H](NC(=O)OCc1ccccc1)C(=O)N[C@@H](C)C(=O)NC(Cc1ccccc1)B(O)O", "note": "(stereo partly drawn) [DK120, carbobenzoxy-ala-ala-borophe]", "values": [
      {"measurement": "% Mortality", "setting": "[1]; without DK120 33", "result": 0, "unit": "%"},
      {"measurement": "AST", "setting": "[1]; without DK120 119", "result": "72 +/- 13 U/ml"},
      {"measurement": "ALT", "setting": "[1]; without DK120 339", "result": "205 +/- 28 U/ml"},
      {"measurement": "% DNA fragmentation", "setting": "3T3; inhibitor 1 μM", "result": "24 ± 0.3", "unit": "%"},
      {"measurement": "% DNA fragmentation", "setting": "3T3; inhibitor 5 μM", "result": "19 ± 1.9", "unit": "%"},
      {"measurement": "Inhibition of nuclear DNA fragmenting activity of protease from UV-treated cells", "setting": "isolated U937 nuclei", "result": "inhibited"},
      {"measurement": "Inhibition of chymotrypsin / chymotrypsin-like enzymes", "setting": "[2]", "result": "reversible inhibitor of chymotrypsin; also recorded: potently inhibits chymotrypsin-like enzymes"},
      {"measurement": "AST", "setting": "[3]; DK120 5 mg/kg ip 30 min prior to anti-Fas, 12 h, without DK120 81", "result": 121, "unit": "U/ml"},
      {"measurement": "ALT", "setting": "[3]; DK120 5 mg/kg ip 30 min prior to anti-Fas, 12 h, without DK120 513", "result": 746, "unit": "U/ml"},
      {"measurement": "Effect on anti-Fas induced elevation of serum transaminases", "setting": "[3]; mouse, in vivo", "result": "did not counteract the elevation of serum transaminases induced by anti-Fas antibodies"},
      {"measurement": "% Mortality", "setting": "[4]; Gln + LPS + DK120 5 mg/kg, without DK120 33", "result": 0, "unit": "%"},
      {"measurement": "AST", "setting": "[4]; Gln + LPS + DK120 5 mg/kg, without DK120 100", "result": "79 +/- 10 U/ml"},
      {"measurement": "ALT", "setting": "[4]; Gln + LPS + DK120 5 mg/kg, without DK120 334", "result": "182 +/- 17 U/ml"},
      {"measurement": "Effect on serum transaminase levels after LPS or SEB", "setting": "[4]; LPS or SEB plus Gln, DK120 30 min prior", "result": "significant reduction in the serum transaminase levels"},
      {"measurement": "Effect on LPS-induced mortality, long term survival (FIG. 9)", "setting": "[4]; mouse, in vivo", "result": "could delay or prevent LPS-induced mortality"},
      {"measurement": "% DNA fragmentation", "setting": "BT-20; inhibitor 0.2 μM", "result": "5 ± 8.7", "unit": "%"},
      {"measurement": "% DNA fragmentation", "setting": "BT-20; inhibitor 1 μM", "result": 0, "unit": "%"},
      {"measurement": "% DNA fragmentation", "setting": "BT-20; inhibitor 5 μM", "result": 0, "unit": "%"},
      {"measurement": "Effect on UV-induced DNA fragmentation", "setting": "BT-20; summary of Table 2 (BT-20, 3T3, HL-60)", "result": "effectively blocked DNA fragmentation"},
      {"measurement": "Lethality", "setting": "mice; daily injection, 20 mg/kg, preliminary studies", "result": "lethal"},
      {"measurement": "Toxicity of compound alone", "setting": "mice; mouse, in vivo", "result": "relatively toxic"},
      {"measurement": "pIC50", "setting": "U937 cells; Homo sapiens, U-937, read-out: IC50 (Active Concentration), TNF and UV-light induced apoptosis", "result": 5.92},
      {"measurement": "Concentration of maximum suppression of DNA fragmentation", "setting": "U937 cells; U937, TNF 1.0 ng/ml plus cycloheximide or UV 0.1 J/cm^2, 1 h pretreatment (FIG. 1)", "result": 2.0, "unit": "µM"},
      {"measurement": "Effect on DNA fragmentation induced by TNF or UV light", "setting": "U937 cells; U937 cells, result in words", "result": "suppressed DNA fragmentation; also recorded: dose-dependently inhibit DNA fragmentation"}
    ]}
  ]
}
